Measured values: patent US11051515B2, “3-acyl-benzamides and their use as herbicides” (Bayer Aktiengesellschaft, priority 2017, dated 2021)

Key:
ECHCG [1] = test: Pre-emergence action against ECHCG; assay type: in vivo, Echinochloa crus-galli; conditions: pre-emergence, dosage 320 g/ha, scored visually after 3 weeks vs untreated controls
From the text: (§1) Seeds of monocotyledonous and dicotyledonous weed plants and crop plants are laid out in sandy loam soil in wood-fiber pots and covered with soil. The compounds of the invention, formulated in the form of wettable powders (WP) or as emulsion concentrates (EC), are then applied to the surface of the covering soil in the form of an aqueous suspension or emulsion at a water application rate equating to […], with addition of 0.2% wetting agent. After the treatment, the pots are placed in a greenhouse and kept under good growth conditions for the trial plants. The damage to the test plants is scored visually after a test period of 3 weeks by comparison with untreated controls (herbicidal activity in percent (%): 100% activity=the plants have died, 0% activity=like control plants).

AMARE [2] = test: Pre-emergence action against AMARE; assay type: in vivo, Amaranthus retroflexus; conditions: pre-emergence, dosage 320 g/ha, scored visually after 3 weeks vs untreated controls
From the text: as §1

MATIN [3] = test: Pre-emergence action against MATIN; assay type: in vivo, Matricaria inodora; conditions: Dosage 320 g/ha, pre-emergence
From the text: as §1

STEME [4] = test: Pre-emergence action against STEME; assay type: in vivo, Stellaria media; conditions: Dosage 320 g/ha, pre-emergence
From the text: as §1

VERPE [5] = test: Pre-emergence action against VERPE; assay type: in vivo, Veronica persica; conditions: Dosage 320 g/ha, pre-emergence
From the text: as §1

ECHCG [6] = test: Post-emergence action against ECHCG; assay type: in vivo, Echinochloa crus-galli; conditions: post-emergence, dosage 80 g/ha, visual assessment about 3 weeks after treatment vs untreated controls
Experimental: (§2) Seeds of monocotyledonous and dicotyledonous weed and crop plants are laid out in sandy loam soil in wood-fiber pots, covered with soil and cultivated in a greenhouse under good growth conditions. 2 to 3 weeks after sowing, the test plants are treated at the one-leaf stage. The compounds of the invention, formulated in the form of wettable powders (WP) or as emulsion concentrates (EC), are then sprayed onto the green parts of the plants in the form of an aqueous suspension or emulsion at a water application rate equating to […], with addition of 0.2% wetting agent. After the test plants have been left to stand in the greenhouse under optimal growth conditions for about 3 weeks, the action of the preparations is assessed visually in comparison to untreated controls (herbicidal action in percent (%): 100% activity=the plants have died, 0% activity=like control plants). […] At the same time, inventive compounds leave Gramineae crops such as barley, wheat, rye, millet/Sorghum, corn or rice virtually undamaged when applied post-emergence, even at high active ingredient dosages. In addition, some substances are also harmless to dicotyledonous crops such as soya, cotton, oilseed rape, sugar beet or potatoes. Some of the compounds according to the invention have high selectivity and are therefore suitable for controlling unwanted vegetation in agricultural crops by the post-emergence method. The data of Tables B18 to B34 below illustrate, in an exemplary manner, the […] herbicidal action of the compounds according to the invention, the herbicidal activity being stated in percent.

AMARE [7] = test: Post-emergence action against AMARE; assay type: in vivo, Amaranthus retroflexus; conditions: post-emergence, dosage 80 g/ha, visual assessment about 3 weeks after treatment vs untreated controls
Experimental: as §2

MATIN [8] = test: Post-emergence action against MATIN; assay type: in vivo, Matricaria inodora; conditions: post-emergence, dosage 80 g/ha, visual assessment about 3 weeks after treatment vs untreated controls
Experimental: as §2

STEME [9] = test: Post-emergence action against STEME; assay type: in vivo, Stellaria media; conditions: post-emergence, dosage 80 g/ha
Experimental: as §2

VIOTR [10] = test: Post-emergence action against VIOTR; assay type: in vivo, Viola tricolor; conditions: post-emergence, dosage 80 g/ha
Experimental: as §2

VERPE [11] = test: Post-emergence action against VERPE; assay type: in vivo, Veronica persica; conditions: dosage 80 g/ha
Experimental: as §2

ALOMY = test: Pre-emergence action against ALOMY; assay type: in vivo, Alopecurus myosuroides; conditions: dosage 320 g/ha; pre-emergence; scored visually after 3 weeks vs untreated controls; 100% = plants have died, 0% = like control plants
From the text: as §1

ABUTH [12] = test: Pre-emergence action against ABUTH; assay type: in vivo, Abutilon theophrasti; conditions: pre-emergence, dosage 320 g/ha, scored visually after 3 weeks vs untreated controls
From the text: as §1

PHBPU [13] = test: Pre-emergence action against PHBPU; assay type: in vivo, Pharbitis purpurea; conditions: Dosage 320 g/ha, pre-emergence
From the text: as §1

PHBPU [14] = test: Post-emergence action against PHBPU; assay type: in vivo, Pharbitis purpurea; conditions: post-emergence, dosage 80 g/ha
Experimental: as §2

AVEFA = test: Pre-emergence action against AVEFA; assay type: in vivo, Avena fatua; conditions: dosage 320 g/ha, scored visually after 3 weeks vs untreated controls
From the text: as §1

VIOTR [15] = test: Pre-emergence action against VIOTR; assay type: in vivo, Viola tricolor; conditions: Dosage 320 g/ha, pre-emergence
From the text: as §1

ABUTH [16] = test: Post-emergence action against ABUTH; assay type: in vivo, Abutilon theophrasti; conditions: post-emergence, dosage 80 g/ha, visual assessment about 3 weeks after treatment vs untreated controls
Experimental: as §2

CYPES = test: Pre-emergence action against CYPES; assay type: in vivo, Cyperus esculentus; conditions: pre-emergence, dosage 320 g/ha, scored visually after 3 weeks vs untreated controls
From the text: as §1

SETVI [17] = test: Pre-emergence action against SETVI; assay type: in vivo, Setaria viridis; conditions: pre-emergence, dosage 320 g/ha, scored visually after 3 weeks vs untreated controls
From the text: as §1

SETVI [18] = test: Post-emergence action against SETVI; assay type: in vivo, Setaria viridis; conditions: post-emergence, dosage 80 g/ha, visual assessment about 3 weeks after treatment vs untreated controls
Experimental: as §2

Structure (SMILES) | Pre-emergence action against ALOMY (herbicidal activity in percent) (ALOMY) [%] | Pre-emergence action against ABUTH (herbicidal activity) (ABUTH [12]) [%] | Pre-emergence action against AMARE (herbicidal activity) (AMARE [2]) [%] | Pre-emergence action against MATIN (MATIN [3]) [%] | Pre-emergence action against PHBPU (PHBPU [13]) [%] | Pre-emergence action against STEME (STEME [4]) [%] | Pre-emergence action against VERPE (VERPE [5]) [%] | Post-emergence action against MATIN (herbicidal action in percent) (MATIN [8]) [%] | Post-emergence action against PHBPU (PHBPU [14]) | Post-emergence action against STEME (STEME [9]) | Post-emergence action against VIOTR (VIOTR [10]) | Pre-emergence action against ECHCG (herbicidal activity) (ECHCG [1]) [%] | Pre-emergence action against VIOTR (VIOTR [15]) [%] | Post-emergence action against ABUTH (herbicidal action in percent) (ABUTH [16]) [%] | Post-emergence action against AMARE (herbicidal action in percent) (AMARE [7]) [%] | Post-emergence action against ECHCG (herbicidal action in percent) (ECHCG [6]) [%] | other results
CCC(=O)c1c(C)ccc(C(=O)Nc2nnnn2C)c1Cl [1-135] | – | – | – | – | – | – | – | – | – | – | – | – | – | – | – | – | pest or weed control at 320 g/ha (ECHCG [1]; Echinochloa crus-galli, 504 h, read-out: Pre-emergence action against ECHCG (herbicidal activity)): 90%; pest or weed control at 320 g/ha (AMARE [2]; Amaranthus retroflexus, 504 h, read-out: Pre-emergence action against AMARE (herbicidal activity)): 100%; pest or weed control at 320 g/ha (MATIN [3]; Tripleurospermum inodorum, 504 h): 90%; pest or weed control at 320 g/ha (STEME [4]; Stellaria media, 504 h): 90%; pest or weed control at 320 g/ha (VERPE [5]; Veronica persica, 504 h): 90%; pest or weed control at 80 g/ha (ECHCG [6]; Echinochloa crus-galli, 504 h, read-out: Post-emergence action against ECHCG (herbicidal action in percent)): 80%; pest or weed control at 80 g/ha (AMARE [7]; Amaranthus retroflexus, 504 h, read-out: Post-emergence action against AMARE (herbicidal action in percent)): 90%; pest or weed control at 80 g/ha (MATIN [8]; Tripleurospermum inodorum, 504 h, read-out: Post-emergence action against MATIN (herbicidal action in percent)): 90%; pest or weed control at 80 g/ha (STEME [9]; Stellaria media, 504 h): 100%; pest or weed control at 80 g/ha (VIOTR [10]; Viola tricolor, 504 h): 90%; pest or weed control at 80 g/ha (VERPE [11]; Veronica persica, 504 h): 80%
CCn1nnnc1NC(=O)c1ccc(C)c(C(=O)C2CC2)c1Cl [2-136] | 90 | 90 | 100 | 100 | 100 | 90 | 90 | 90 | 90 | 80 | 80 | – | – | – | – | – | –
CCn1nnnc1NC(=O)c1ccc(C(F)(F)F)c(C(=O)C2CCCCC2)c1SC [2-285] | – | 100 | 100 | 90 | – | 100 | 90 | 80 | – | 80 | – | 80 | 100 | 90 | 90 | – | Pre-emergence action against AVEFA (herbicidal activity) (AVEFA): 80%
CCn1nnnc1NC(=O)c1ccc(C(F)(F)F)c(C(=O)c2cc(F)cc(F)c2)c1Cl [2-286] | – | 80 | 100 | – | 80 | – | – | – | 90 | – | 80 | – | 100 | 80 | 90 | 80 | –
CCCn1nnnc1NC(=O)c1ccc(C)c(C(=O)C2CC2)c1C [3-3] | 90 | 80 | 100 | 100 | – | 90 | – | – | – | 80 | – | 100 | – | – | 100 | 100 | Pre-emergence action against CYPES (herbicidal activity) (CYPES): 90%; SETVI (Table B8, pre-emergence herbicidal activity) (SETVI [17]): 90%
CCCn1nnnc1NC(=O)c1ccc(C(F)(F)F)c(C(=O)CC)c1C [3-15] | 80 | 100 | 100 | 100 | 80 | 100 | 100 | 100 | 90 | 100 | 90 | 100 | 100 | 90 | 90 | 100 | SETVI (Table B8, pre-emergence herbicidal activity) (SETVI [17]): 100%; Post-emergence action against SETVI (herbicidal action in percent) (SETVI [18]): 100%; Post-emergence action against VERPE (VERPE [11]): 90
CCCn1nnnc1NC(=O)c1ccc(C)c(C(=O)C2CC2)c1Cl [3-136] | – | 80 | 90 | 90 | 90 | – | – | 90 | 90 | 100 | 80 | 80 | – | – | 80 | 80 | Post-emergence action against VERPE (VERPE [11]): 80
